Test systems include SNB-19 CNS; M14 melanoma; U251 CNS; HT29 colon; SK-MEL-28 melanoma; NCI-H23 lung; RPMI-8226 leukemia; SN12C renal; NCI-H226 lung; OVCAR-4 ovarian.
Holding throughout (assay): NCI tumour cell line growth inhibition, 48 h

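48-hour exposure; five concentrations; linearly interpolated endpoints. Here, GI50 denotes the concentration required for 50% inhibition of growth. TGI denotes the concentration required for complete inhibition of growth.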

On to `COc1c(C)c(OC)c(C(=O)CC(C)C)c(OC)c1C`, for which the TGI in the test with SNB-19 CNS, in the test with M14 melanoma, in the test on U251 CNS, in the test on HT29 colon, with SK-MEL-28 melanoma and in the test on NCI-H23 lung was above 100 µM each time. The TGI was 73.1 µM with RPMI-8226 leukemia, above 100 µM with SN12C renal, above 100 µM in the test with NCI-H226 lung and above 100 µM with OVCAR-4 ovarian.
On to `O=C(Nc1n[nH]c2nc(-c3ccc(O)cc3)c(Br)cc12)C1CC1`, for which the GI50 in the test with SNB-19 CNS was 6.96 µM; in the test on M14 melanoma, 3.97 µM; in the test on U251 CNS, 4.39 µM; in the test on HT29 colon, 2.04 µM; with SK-MEL-28 melanoma, 3.85 µM; in the test on NCI-H23 lung, 4.78 µM. For the same compound, the GI50 in the test with RPMI-8226 leukemia was 6.05 µM; with SN12C renal, 3.41 µM; in the test with NCI-H226 lung it was 3.14 µM; in the test with OVCAR-4 ovarian it was 5.17 µM. Besides, the TGI is above 24.1 µM in the test on SNB-19 CNS; 11.3 µM in the test on M14 melanoma; above 20.2 µM in the test with U251 CNS; 13.8 µM in the test on HT29 colon; 9.88 µM with SK-MEL-28 melanoma; 16.8 µM in the test with NCI-H23 lung. In addition, the TGI with RPMI-8226 leukemia was determined as 15.7 µM; in the test on SN12C renal, 20.1 µM; with NCI-H226 lung, 13.5 µM; in the test with OVCAR-4 ovarian, 14.4 µM.
For the compound `CC(C)=Cc1cccc2[nH]c(O)c(N=Nc3ccc(S(N)(=O)=O)cc3)c12`, the GI50 was above 14.6 µM in the test with SNB-19 CNS; above 25 µM with M14 melanoma; 4.24 µM in the test with U251 CNS; 3.36 µM with HT29 colon; above 25 µM in the test on SK-MEL-28 melanoma; 7.25 µM with NCI-H23 lung. Besides, the GI50 was 8.16 µM in the test with RPMI-8226 leukemia, above 25 µM in the test on SN12C renal, above 6.16 µM in the test on NCI-H226 lung and 1.26 µM with OVCAR-4 ovarian. In addition, the TGI in the test on SNB-19 CNS, in the test with M14 melanoma, in the test on U251 CNS, in the test with HT29 colon, in the test with SK-MEL-28 melanoma and in the test with NCI-H23 lung was above 25 µM throughout. In addition, the TGI with RPMI-8226 leukemia, in the test on SN12C renal, in the test with NCI-H226 lung and with OVCAR-4 ovarian was above 25 µM in each case.
`O=S(=O)(O)n1ccnc1` (tested in a mixture with another compound): the TGI with SNB-19 CNS, with M14 melanoma, with U251 CNS, in the test with HT29 colon, with SK-MEL-28 melanoma and in the test on NCI-H23 lung was above 100 µM in each case. Besides, the TGI in the test with RPMI-8226 leukemia, in the test on SN12C renal, in the test on NCI-H226 lung and in the test on OVCAR-4 ovarian was above 100 µM each time.
As to `CN(/N=C/c1ccccc1O)c1ccc2ccccc2n1`, the TGI in the test with SNB-19 CNS is 30.3 µM; in the test on M14 melanoma, above 100 µM; in the test with U251 CNS, 29.8 µM; in the test on HT29 colon it was 90.1 µM; in the test on SK-MEL-28 melanoma it was above 100 µM; with NCI-H23 lung, 58.4 µM. In addition, the TGI in the test with RPMI-8226 leukemia is above 100 µM; with SN12C renal, above 100 µM; with NCI-H226 lung, above 100 µM; in the test with OVCAR-4 ovarian, 67.7 µM.
As to `CCc1cccc(C(C)CC)c1NC(=O)C(=O)Cc1nc2ccccc2o1` (stereo not given), the TGI in the test with SNB-19 CNS, with M14 melanoma, with U251 CNS, in the test with HT29 colon, with SK-MEL-28 melanoma and in the test on NCI-H23 lung was above 50 µM throughout. In addition, the TGI with RPMI-8226 leukemia, with SN12C renal, with NCI-H226 lung and in the test with OVCAR-4 ovarian was above 50 µM throughout.
As to `CCN(CC)CCCNc1n[n+]([O-])c2ccccc2[n+]1[O-]`, the TGI in the test with SNB-19 CNS was above 100 µM; with M14 melanoma it was above 100 µM; in the test with U251 CNS, above 100 µM; in the test on HT29 colon, 85.3 µM; in the test on SK-MEL-28 melanoma, above 100 µM; with NCI-H23 lung, 46.9 µM. The TGI with RPMI-8226 leukemia was 23.3 µM; in the test on SN12C renal, 27.9 µM; with NCI-H226 lung it was 85.6 µM; with OVCAR-4 ovarian, above 100 µM.
For the compound `COc1ccccc1NC(=O)CC(=O)n1nc(C)c(N=Nc2ccccc2Cl)c1C`, the TGI is above 100 µM with SNB-19 CNS; above 100 µM in the test with M14 melanoma; above 44.2 µM with U251 CNS; above 100 µM in the test on HT29 colon; above 100 µM with SK-MEL-28 melanoma; above 44.7 µM in the test with NCI-H23 lung. Moreover, the TGI in the test with RPMI-8226 leukemia, in the test on SN12C renal, in the test on NCI-H226 lung and in the test on OVCAR-4 ovarian was above 100 µM in each case.
On to `CC1SC2=NC3=C(c4ccccc4C3=O)C(c3ccccc3Cl)N2C1=O` (stereo not given), for which the TGI in the test with SNB-19 CNS, in the test with M14 melanoma, in the test with U251 CNS, in the test on HT29 colon, in the test with SK-MEL-28 melanoma and with NCI-H23 lung was above 100 µM each time. In addition, the TGI with RPMI-8226 leukemia, in the test with SN12C renal, in the test with NCI-H226 lung and in the test on OVCAR-4 ovarian was above 100 µM in each case.
On to `CCCCc1n(Cc2ccc3ccccc3n2)cc[n+]1Cc1ccc2ccccc2n1`, for which the GI50 in the test on SNB-19 CNS was 0.826 µM; with M14 melanoma, 1.71 µM; in the test with U251 CNS it was 0.925 µM; in the test on HT29 colon it was 0.801 µM; in the test on SK-MEL-28 melanoma, 1.05 µM; with NCI-H23 lung it was 0.499 µM. Besides, the GI50 in the test with RPMI-8226 leukemia is 0.295 µM; with SN12C renal, 1.41 µM; with NCI-H226 lung, 2.26 µM; in the test on OVCAR-4 ovarian it was 0.381 µM. Also, the TGI turned out to be 12.9 µM in the test with SNB-19 CNS; 10.2 µM in the test with M14 melanoma; 12.4 µM in the test with U251 CNS; 7.89 µM with HT29 colon; 12.2 µM in the test on SK-MEL-28 melanoma; 8.54 µM in the test with NCI-H23 lung. The TGI was found to be 3.28 µM in the test on RPMI-8226 leukemia, 11.1 µM with SN12C renal, 11.8 µM in the test on NCI-H226 lung and 13.5 µM in the test with OVCAR-4 ovarian.
As to `C[C@]12CCc3nonc3C1CC[C@@H]1C2CC[C@@]2(C)C1CC[C@@H]2O` (stereo not given in full), the TGI in the test on SNB-19 CNS, with M14 melanoma, in the test with U251 CNS, in the test on HT29 colon, with SK-MEL-28 melanoma and in the test with NCI-H23 lung was above 100 µM each time. Also, the TGI in the test with RPMI-8226 leukemia, with SN12C renal, with NCI-H226 lung and with OVCAR-4 ovarian was above 100 µM in each case.
Take `COc1cc(NS(C)(=O)=O)ccc1Cc1c2ccccc2nc2ccccc12`: the GI50 with SNB-19 CNS was 0.134 µM; in the test on M14 melanoma it was 0.158 µM; in the test on U251 CNS it was 0.136 µM; in the test with HT29 colon, 0.3 µM; in the test with SK-MEL-28 melanoma it was 0.672 µM; in the test on NCI-H23 lung, 0.137 µM. Also, the GI50 with RPMI-8226 leukemia was 0.377 µM; with SN12C renal, 0.0742 µM; in the test with NCI-H226 lung, 0.107 µM; in the test with OVCAR-4 ovarian, 1.25 µM. Besides, the TGI in the test with SNB-19 CNS was found to be 3.35 µM; in the test with M14 melanoma it was 1.43 µM; in the test on U251 CNS it was 1.21 µM; in the test with HT29 colon, 1.82 µM; in the test with SK-MEL-28 melanoma, 2.36 µM; with NCI-H23 lung, 1.48 µM. Moreover, the TGI with RPMI-8226 leukemia was found to be 3.28 µM; in the test with SN12C renal, 1.17 µM; in the test on NCI-H226 lung, 0.462 µM; with OVCAR-4 ovarian, 2.52 µM.
On to `COC(=O)C1=C(C(=O)ON)[C@@H]2C=C[C@@]1([C@@H](Cc1ccccc1)Nc1ccccc1)O2`, for which the GI50 is 16 µM in the test with SNB-19 CNS; 1.87 µM in the test on M14 melanoma; 14.3 µM with U251 CNS; 1.89 µM with HT29 colon; 1.93 µM with SK-MEL-28 melanoma; 14.1 µM in the test with NCI-H23 lung. Further, the GI50 was 2.13 µM in the test on RPMI-8226 leukemia, 1.87 µM in the test with SN12C renal, 14.5 µM in the test with NCI-H226 lung and 1.62 µM in the test on OVCAR-4 ovarian. For the same compound, the TGI in the test on SNB-19 CNS was determined as 29.5 µM; in the test on M14 melanoma, 3.89 µM; in the test on U251 CNS, 27.6 µM; with HT29 colon it was 3.97 µM; in the test with SK-MEL-28 melanoma, 3.54 µM; with NCI-H23 lung, 28.9 µM. For the same compound, the TGI in the test on RPMI-8226 leukemia is 5.32 µM; in the test with SN12C renal, 3.69 µM; in the test on NCI-H226 lung, 28.8 µM; in the test on OVCAR-4 ovarian, 3.04 µM.
`CCN1C(=O)N(CC)C2C1NN=c1s/c(=C\c3ccc(C(F)(F)F)cc3)c(=O)n12` (stereo not given): the GI50 in the test with SNB-19 CNS is 0.647 µM; in the test on M14 melanoma it was 0.311 µM; in the test with U251 CNS it was 0.443 µM; in the test on HT29 colon, 0.352 µM; in the test on SK-MEL-28 melanoma it was 2.4 µM; with NCI-H23 lung, 0.585 µM. Besides, the GI50 is 0.389 µM in the test on RPMI-8226 leukemia, 0.678 µM in the test with SN12C renal, 1.14 µM in the test with NCI-H226 lung and 0.839 µM in the test on OVCAR-4 ovarian. Further, the TGI is above 44.8 µM in the test with SNB-19 CNS; above 36.1 µM with M14 melanoma; above 41.6 µM with U251 CNS; 11.8 µM in the test with HT29 colon; 38.7 µM in the test with SK-MEL-28 melanoma; above 64.4 µM in the test on NCI-H23 lung. Further, the TGI in the test with RPMI-8226 leukemia was 8.67 µM; with SN12C renal, 20 µM; in the test with NCI-H226 lung, above 24.8 µM; with OVCAR-4 ovarian, above 74.5 µM.

The values above are taken from PubChem BioAssay (NCI).
